The text below walks through data of the SangsterLogP compilation.

Data set [1] in a line: method code SF-AS, from DOI: 10.1002/qua.560100722.
The nature of data set [2]: method code SF, from DOI: 10.1002/ps.2780350215.
Data set [3] is described as follows: method code SF-AS, from DOI: 10.1016/s0022-5347(24)07568-2, PMID: 4149453. As to conditions: pH 7.5.
For data set [4] the following is noted: pH 7.4.
A short description of data set [5]: method code SF-HPLC, from DOI: 10.1023/a:1015956705293, PMID: 3244625.
Experiment in data set [6]: not given
This is another data set of the same source.

Data set [7] is described as follows: method code SF-AS, from DOI: 10.1016/0006-2952(90)90117-4, PMID: 2344368. As to conditions: pH 7.5.
A short description of data set [8]: method code SF, from DOI: 10.1016/0378-5173(85)90077-8.
Experiment in data set [9]: not given
This is another data set of the same source.

Experiment in data set [10]: not given
The source holds these as a separate data set.

Experiment in data set [11]: not given
This is another data set of the same source.

Data set [12] in a line: method code SF-FL, from DOI: 10.1016/0006-2952(96)00248-1, PMID: 8687500.
Data set [13] is described as follows: method code SF, from PMID: 26783178.
Data set [14] is described as follows: method code SF-AS, from DOI: 10.1016/0378-5173(85)90003-1.
Data set [15] is described as follows: method code HPLC, from DOI: 10.1016/j.bmcl.2004.01.062, PMID: 15026043. The conditions noted are these: pH 5.5.
Data set [16] in a line: method code SF-HPLC, from DOI: 10.1021/jm00169a024, PMID: 2194033. As to conditions: pH 7.4.

In the case of `COc1cccc2c1C(=O)c1c(O)c3c(c(O)c1C2=O)C[C@@](O)(C(C)=NNC(=O)c1ccccc1)C[C@@H]3O[C@H]1C[C@H](N)[C@H](O)[C@H](C)O1`, the logD in [1] (pH 8.8) stood at 0.76.

For `NC(=O)c1ccc2c(ccn2CC(=O)Oc2ccc(-c3ccccc3)cc2)c1`, the logP worked out at 2.4.

With `Cc1cc(=O)c(C(=O)Nc2ccccc2Cl)c(C)n1CCc1ccccc1`, in data set [2], the logP is 2.79.

For `CCCCCOC(=O)CC[C@H](NC(=O)c1ccc(N(C)Cc2cnc3nc(N)nc(N)c3n2)cc1)C(=O)OCCCCC`, in data set [3], the logD came to 1.33.

Consider `CCCCCCCCc1ccc(OC(=O)Cn2ccc3cc(C(=O)O)ccc32)cc1`, for which the logP was 6.3.

Regarding `COC(=O)CCC(NC(=O)c1ccc(N(C)Cc2cnc3nc(N)nc(N)c3n2)cc1)C(=O)OC` (stereo not given), the logD in [3] turned out to be 0.54.

`COc1cccc2c1C(=O)c1c(O)c3c(c(O)c1C2=O)CC(O)(C(C)=O)CC3OC1CC(NC(=O)CN)C(O)C(C)O1` (stereo not given) registered a logD in [1] (pH 7.8) of 0.64.

As for `CCCNC(=O)[C@H](O)[C@@]1(O)CC[C@H]2[C@@H]3CCC4=CC(=O)C=C[C@]4(C)[C@H]3[C@@H](O)C[C@@]21C`, the logD in data set [4] came out at 1.43.

In data set [5], `C[C@]12CCC(=O)C=C1CC[C@@H]1[C@@H]2[C@@H](O)C[C@@]2(C)[C@H]1CC[C@]2(O)C(=O)COC(=O)CCCCCC(N)=O` showed a log partition coefficient (logP) of 2.3.

On to `Cc1cccc2c1OP(=O)(OCC1OC(n3cc(C=CBr)c(=O)[nH]c3=O)CC1OC(=O)C(C)C)OC2` (stereo not given), for which the logP in data set [6] came out at 2.4.

Consider `COc1cccc2c1C(=O)c1c(O)c3c(c(O)c1C2=O)CC(O)(C(C)=O)CC3OC1CC(O)C(O)C(C)O1` (stereo not given), for which the logD in data set [7] was found to be 1.34.

Regarding `CCCCCC(=O)OCC(=O)[C@@]1(O)CC[C@H]2[C@@H]3CCC4=CC(=O)CC[C@]4(C)[C@H]3[C@@H](O)C[C@@]21C`, the logP in [8] amounted to 3.7.

In data set [7], `COc1cccc2c1C(=O)c1c(O)c3c(c(O)c1C2=O)CC(O)(C(C)=O)CC3OC1CC(NC(C)=O)C(O)C(C)O1` (stereo not given) showed a logD of 1.85.

For `CN1C=CCC(C(=O)O[C@H]2CC[C@H]3[C@@H]4CCc5cc(O)ccc5[C@H]4CC[C@]23C)=C1`, the logP in [9] worked out at 4.52.

`COc1ccc(CC2C(=O)NC(C)C(=O)N(C)C3Cc4ccc(cc4)Oc4cc(ccc4OC)CC(C(=O)NC(C)C(=O)NC(C)C(=O)N2C)N(C)C3=O)cc1` (stereo not given) showed a logP in data set [10] of 3.17.

On to `Cc1cc(C(=O)N2Cc3ccc(C(=O)N(CCO)CCO)n3Cc3ccccc32)ccc1-c1ccccc1CCF`, for which the logP in data set [11] was found to be 3.14.

Turning to `COc1cccc2c1C(=O)c1c(O)c3c(c(O)c1C2=O)C[C@@](O)(C(C)=O)C[C@@H]3O[C@H]1C[C@H](NC(=O)OCc2ccc(NC(=O)[C@@H]3O[C@H](C(=O)O)[C@@H](O)[C@H](O)[C@H]3O)cc2)[C@H](O)[C@H](C)O1`, the logP in [12] is -1.7.

Turning to `Cc1cc(C(=O)N2Cc3ccc(C(=O)N(C)CCF)n3Cc3ccccc32)ccc1-c1ccccc1C(F)(F)F`, the logP in [11] amounted to 5.2.

`COc1cccc2c1C(=O)c1c(O)c3c(c(O)c1C2=O)C[C@@](O)(C(C)=O)C[C@@H]3O[C@H]1C[C@H](NC(=O)Cc2ccccc2NC(=O)[C@@H]2O[C@H](C(=O)O)[C@@H](O)[C@H](O)[C@H]2O)[C@H](O)[C@H](C)O1` showed a logP in [12] of -1.1.

`C=CCCN1C=CCC(C(=O)OC2CCC3C4CCc5cc(O)ccc5C4CC23C)=C1` (stereo not given) showed a logP in [9] of 3.96.

Consider `CNC(=O)C(O)C1(O)CCC2C3CCC4=CC(=O)C=CC4(C)C3C(O)CC21C` (stereo not given), for which the logD in data set [4] is 1.

As for `Cc1ccc(N2C(=O)C(CCCNS(=O)(=O)c3ccc(OC(F)(F)F)cc3)C2c2ccc(NS(C)(=O)=O)cc2)cc1` (stereo not given), the logP in data set [13] was determined as 3.45.

In the case of `Cn1nnnc1SCC1=C(C(=O)OCOC(=O)C(C)(C)C)N2C(=O)C(NC(=O)Cc3csc(N)n3)C2SC1` (stereo not given), in [14] (pH 4.6), the logD is 1.36.

For `CCCCCC(=O)OCC(=O)[C@@]1(O)CC[C@H]2[C@@H]3CCC4=CC(=O)CC[C@]4(C)[C@H]3C(=O)C[C@@]21C`, the logP in data set [8] worked out at 3.3.

For `CCCCCCCC(=O)OCC(=O)[C@@]1(O)CC[C@H]2[C@@H]3CCC4=CC(=O)CC[C@]4(C)[C@H]3[C@@H](O)C[C@@]21C`, the logP in [8] is 4.37.

Consider `CN(C)C(=O)Oc1ccc(CC(NC(=O)C2N(S(=O)(=O)c3cnn(C)c3)CSC2(C)C)C(=O)OCOC(=O)C(C)(C)C)cc1` (stereo not given), for which the logD in data set [15] was 3.14.

In data set [6], `Cc1cccc2c1OP(=O)(OCC1OC(n3cc(/C=C/Br)c(=O)[nH]c3=O)CC1OC(=O)C1CCCN1)OC2` (stereo not given) had a logP of -0.4.

For the compound `C[C@]12C=CC(=O)C=C1CC[C@@H]1[C@@H]2[C@@H](O)C[C@@]2(C)[C@H]1CC[C@]2(O)[C@@H](O)C(=O)NCc1ccccc1`, in data set [4], the logD came out at 1.51.

On to `CC(C)N1C=CCC(C(=O)OC2CCC3C4CCc5cc(O)ccc5C4CC23C)=C1` (stereo not given), for which the logP in [9] is 4.6.

`COc1cccc2c1C(=O)c1c(O)c3c(c(O)c1C2=O)C[C@@](O)(C(C)=O)C[C@@H]3O[C@H]1C[C@H](NC(=O)CCCNC(=O)[C@@H]2O[C@H](C(=O)O)[C@@H](O)[C@H](O)[C@H]2O)[C@H](O)[C@H](C)O1` came in with a logP in [12] of -2.

In data set [13], `CCc1ccc(S(=O)(=O)NCCC[C@H]2C(=O)N(c3ccc(C)cc3)[C@@H]2c2ccc(NS(=O)(=O)c3ccc(C)cc3)cc2)cc1` registered a logP of 3.9.

Compound `Cc1cc(=O)c(C(=O)Nc2ccccc2)c(C)n1CCc1ccccc1` showed a logP in [2] of 2.04.

`Cc1ccc(N2C(=O)[C@H](CCCNS(=O)(=O)c3ccc(OC(F)(F)F)cc3)[C@H]2c2ccc(NS(=O)(=O)c3ccc(C)cc3)cc2)cc1`: the logP in data set [13] amounted to 3.78.

Compound `COc1cccc2c1C(=O)c1c(O)c3c(c(O)c1C2=O)C[C@@](O)(C(C)=O)C[C@@H]3O[C@@H]1C[C@@H](N(C)C)[C@@H](O)[C@@H](C)O1` returned a pH-dependent lipophilicity (logD) in [7] of 1.37.

As to `CCN1C[C@H]([C@@H](O)[C@H](CC2CCCCC2)NC(=O)[C@@H](Cc2cnc[nH]2)NC(=O)[C@@H](Cc2ccc(OC)cc2)NC(=O)N(C)CCOCOCCOC)OC1=O`, the logD in data set [16] stood at 2.03.

The compound `CCN1CC(C(O)C(CC2CCCCC2)NC(=O)[C@H](Cc2cnc[nH]2)NC(=O)[C@H](Cc2ccc(OC)cc2)NC(=O)N(C)CC(O)CO)OC1=O` (stereo not given in full) registered a logD in data set [16] of 1.42.

`C[C@]12CCC(=O)C=C1CC[C@@H]1[C@@H]2[C@@H](O)C[C@@]2(C)[C@H]1CC[C@]2(O)C(=O)COC(=O)CCC(N)=O` displayed a logP in [5] of 1.43.

In the case of `CCOC(=O)C(Cc1ccc(OC(=O)N(C)C)cc1)NC(=O)C1N(S(=O)(=O)c2cnn(C)c2)CSC1(C)C` (stereo not given), the logD in [15] is 2.14.

The compound `O=C(Cn1ccc2cc(C(=O)O)ccc21)Oc1ccccc1-c1ccccc1` registered a logP of 3.1.

In turn, `Cn1nnnc1SCC1=C(C(=O)OCOC(=O)C(C)(C)C)N2C(=O)C(NC(=O)C(O)c3ccccc3)C2SC1` (stereo not given) gave a logD in [14] (pH 4.5) of 0.85.

`CCCCCCCCOC(=O)CCC(NC(=O)c1ccc(N(C)Cc2cnc3nc(N)nc(N)c3n2)cc1)C(=O)OCCCCCCCC` (stereo not given) registered a logD in data set [3] of 2.16.

As for `CCN1CC(C(O)C(CC2CCCCC2)NC(=O)C(Cc2cnc[nH]2)NC(=O)N(Cc2ccc(OC)cc2)C(=O)N(C)CCOCOC)OC1=O` (stereo not given), the logD in data set [16] turned out to be 2.3.

`COc1ccc(CC2C(=O)NC(C)C(=O)N(C)C3Cc4ccc(cc4)Oc4cc(ccc4OC(C)=O)CC(C(=O)NC(C)C(=O)NC(C)C(=O)N2C)N(C)C3=O)cc1` (stereo not given): the logP in data set [10] was 3.19.

In turn, `COc1ccc(CC2C(=O)NC(C)C(=O)N(C)C3Cc4ccc(cc4)Oc4cc(ccc4O)CC(C(=O)NC(C)C(=O)NC(C)C(=O)N2C)N(C)C3=O)cc1` (stereo not given) showed a logP in data set [10] of 2.72.

Regarding `COc1cccc2c1C(=O)c1c(O)c3c(c(O)c1C2=O)CC(O)(C(C)=O)CC3OC1CC(NC(=O)CN(C)C)C(O)C(C)O1` (stereo not given), in data set [1] (pH 7.8), the logD worked out at 1.26.

For `CC(=O)OCC1=C(C(=O)OCOC(=O)C(C)(C)C)N2C(=O)C(NC(=O)Cc3cccs3)C2SC1` (stereo not given), the logD in [14] (pH 4.6) was 1.57.

Consider `CCc1cccc(CC)c1NC(=O)c1c(C)n(Cc2ccccc2)c(C)cc1=O`, for which the logP in [2] is 2.9.

With `Cc1cc(C(=O)N2Cc3ccc(C(=O)N(CCO)CCF)n3Cc3ccccc32)ccc1-c1ccccc1C(F)(F)F`, the logP in data set [11] was 4.89.

Compound `COC(=O)CCCCCC(=O)OCC(=O)C1(O)CCC2C3CCC4=CC(=O)CCC4(C)C3C(O)CC21C` (stereo not given) registered a logP in data set [5] of 3.7.

The compound `Cc1cccc2c1OP(=O)(OCC1OC(n3cc(/C=C/Br)c(=O)[nH]c3=O)CC1OC(=O)C(N)C(C)C)OC2` (stereo not given) registered a logP in data set [6] of -0.1.
